Results on twelve compounds are retold here after ChEMBL document CHEMBL1201862, “PubChem BioAssay data set” (2004).

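Where inhibition never reached the appropriate level, the endpoint shown equals the highest concentration tested. Otherwise, values were interpolated linearly from a five-concentration, 48-hour dose response in 96-well plates. GI50 marks 50% less growth.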 Active and inactive are the calls of the source. Cut-off read from the data, not from the text of the source: active = GI50 up to about 1.1 µM and inactive = higher.

Among the test systems are A498; SNB-75; HL-60; SK-MEL-5; U-251; Malme-3M; SW-620; UO-31; SF-295; LOX IMVI; SN12C; SNB-78; K562; SF-539; COLO 205; HOP-62; RXF 393; KM12; A549; UACC-257.
Holding throughout (test): NCI tumour cell line growth inhibition, 48 h

As to `CCOCc1cc(=O)c2c(O)cc3c(c2o1)CCC(C)(C)O3`, the GI50 in the assay with A498, in the assay with SNB-75, in the assay on HL-60, in the assay with SK-MEL-5, in the assay with U-251 and in the assay on Malme-3M was > 100 µM (inactive) throughout. The GI50 in the assay with SW-620, in the assay with UO-31, with SF-295, in the assay on LOX IMVI, in the assay on SN12C and with SNB-78 was > 100 µM (inactive) each time. Besides, the GI50 in the assay on K562, in the assay on SF-539 and in the assay on COLO 205 was > 100 µM (inactive) in each case.
With `COc1cc(S(=O)(=O)Nc2ccc(-c3csc(N4C(=O)C(C)SC4c4cccc(Oc5ccccc5)c4)n3)cc2)ccc1Cl` (stereo unspecified), the GI50 in the assay on A498 was 27.4 µM (inactive); in the assay with SNB-75, 52.1 µM (inactive); with HL-60, 27.2 µM (inactive); with HOP-62, 50.7 µM (inactive); in the assay with SK-MEL-5 it was 27.5 µM (inactive); in the assay on Malme-3M, > 100 µM (inactive). The GI50 in the assay on SW-620 is 59 µM (inactive); with UO-31 it was 64.6 µM (inactive); in the assay with SF-295, 46.2 µM (inactive); with LOX IMVI it was 32.4 µM (inactive); in the assay with RXF 393 it was 17.3 µM (inactive); in the assay on SN12C it was 70.1 µM (inactive). Moreover, the GI50 in the assay on KM12 is 34.5 µM (inactive); in the assay on K562, 36.5 µM (inactive); in the assay on SF-539 it was 27.6 µM (inactive); in the assay with COLO 205, 27.7 µM (inactive); with A549, > 100 µM (inactive).
As for `O=[S@@]1Nc2ccc(Br)cc2S1`, the GI50 in the assay on SNB-75 was > 100 µM (inactive); with HL-60, 2.22 µM (inactive); with UACC-257 it was > 100 µM (inactive); with SK-MEL-5, 12.6 µM (inactive); in the assay with U-251, 5.18 µM (inactive); in the assay on Malme-3M it was 97.3 µM (inactive). Moreover, the GI50 is 0.74 µM (active) in the assay with SW-620; 1.05 µM (active) with UO-31; 40 µM (inactive) with SF-295; 0.437 µM (active) in the assay on LOX IMVI; 37.7 µM (inactive) in the assay on SN12C; > 100 µM (inactive) with SNB-78. The GI50 in the assay with KM12 was 2.48 µM (inactive); in the assay on K562 it was 0.766 µM (active); with SF-539, 3.94 µM (inactive); in the assay with A549 it was 4.56 µM (inactive).
For the compound `CCOC(=O)C(Cc1c(-c2[nH]c3ccccc3c2CC(NC(=O)CNC(C)=O)C(=O)OCC)[nH]c2ccccc12)NC(=O)CNC(C)=O` (stereo unspecified), the GI50 with A498 was 65 µM (inactive); in the assay on SNB-75 it was 22.1 µM (inactive); in the assay with UACC-257, 27.4 µM (inactive); in the assay on HOP-62, > 100 µM (inactive); in the assay with SK-MEL-5, 29.9 µM (inactive); with U-251, > 100 µM (inactive). The GI50 in the assay on Malme-3M is 20 µM (inactive); with SW-620, > 100 µM (inactive); in the assay on UO-31 it was 77.4 µM (inactive); in the assay with SF-295, > 100 µM (inactive); with SN12C it was 56 µM (inactive); in the assay with KM12 it was > 100 µM (inactive). The GI50 with COLO 205 is 18.6 µM (inactive); in the assay with A549 it was > 100 µM (inactive).
Take `N#C[C@@H](c1nc2ccccc2s1)c1ncccc1[N+](=O)[O-]`: the GI50 in the assay with A498 is 10.8 µM (inactive); with SNB-75, 13.9 µM (inactive); in the assay with HL-60, > 10 µM (inactive); in the assay on UACC-257 it was 2.12 µM (inactive); in the assay on HOP-62, 10.4 µM (inactive); in the assay with SK-MEL-5 it was 3.24 µM (inactive). Besides, the GI50 in the assay with U-251 is 3.48 µM (inactive); with Malme-3M it was 2.87 µM (inactive); in the assay on SW-620, > 10 µM (inactive); in the assay on UO-31, 3.99 µM (inactive); in the assay with SF-295 it was 4.1 µM (inactive); in the assay on LOX IMVI, 4.97 µM (inactive). Further, the GI50 is 5.87 µM (inactive) in the assay on RXF 393; 4.82 µM (inactive) with SN12C; 10.6 µM (inactive) in the assay with KM12; > 10 µM (inactive) in the assay with K562; 4.31 µM (inactive) in the assay on COLO 205; 4.4 µM (inactive) in the assay with A549.
For the compound `Clc1ccc(N/N=C(\c2ccccc2)c2ccccn2)nc1`, the GI50 in the assay on A498 is 49.8 µM (inactive); with SNB-75, 0.316 µM (active); in the assay with HL-60 it was < 0.01 µM (active); in the assay on UACC-257, < 0.0158 µM (active); in the assay on HOP-62, 1.12 µM (active); in the assay on SK-MEL-5, 0.0578 µM (active). In addition, the GI50 with U-251 was 0.031 µM (active); in the assay with Malme-3M, < 0.01 µM (active); with SW-620, < 0.01 µM (active); with UO-31 it was 0.0494 µM (active); in the assay with SF-295 it was 0.323 µM (active); in the assay with RXF 393, 2.2 µM (inactive). Also, the GI50 was < 0.01 µM (active) with SN12C; 0.348 µM (active) in the assay on KM12; 0.622 µM (active) in the assay with SF-539; < 0.01 µM (active) with COLO 205; 0.387 µM (active) in the assay with A549.
As to `CC(=O)N(C(=O)CC(=O)N1N=C(C)C(/N=N/c2cccc([N+](=O)[O-])c2)C1=O)c1ccc(Cl)cc1` (stereo unspecified), the GI50 with SNB-75, with HL-60, with UACC-257, in the assay on HOP-62, in the assay on SK-MEL-5 and in the assay on U-251 was > 10 µM (inactive) throughout. The GI50 in the assay with Malme-3M, in the assay on SW-620, with SF-295, with LOX IMVI, in the assay on SN12C and with KM12 was > 10 µM (inactive) each time. Moreover, the GI50 with K562, in the assay with SF-539, in the assay with COLO 205 and in the assay with A549 was > 10 µM (inactive) throughout.
As to `CCOC(=O)c1nc2ccc(OC)cc2c2c1Cc1ccccc1-2`, the GI50 was 81.5 µM (inactive) with SNB-75; > 100 µM (inactive) in the assay with UACC-257; > 100 µM (inactive) in the assay on HOP-62; 42.8 µM (inactive) with SK-MEL-5; > 100 µM (inactive) in the assay on U-251; > 100 µM (inactive) in the assay on Malme-3M. Besides, the GI50 in the assay with SW-620 is > 100 µM (inactive); in the assay with UO-31, > 100 µM (inactive); in the assay with SF-295, > 100 µM (inactive); in the assay with LOX IMVI, > 100 µM (inactive); in the assay on RXF 393, 16.2 µM (inactive); with SN12C it was > 100 µM (inactive). The GI50 was > 100 µM (inactive) in the assay with SNB-78; > 100 µM (inactive) in the assay with KM12; > 100 µM (inactive) with K562; 84.9 µM (inactive) in the assay with SF-539; > 100 µM (inactive) in the assay with COLO 205; > 100 µM (inactive) in the assay with A549.
For `C[C@H](C(=O)O)C(=O)NC(=O)N(Cc1ccccc1)N=O`, the GI50 in the assay with A498 was > 100 µM (inactive); in the assay on SNB-75, 98.4 µM (inactive); with UACC-257, > 100 µM (inactive); with HOP-62, > 100 µM (inactive); with SK-MEL-5, > 100 µM (inactive); in the assay on U-251, > 100 µM (inactive). Besides, the GI50 in the assay on Malme-3M, in the assay with SW-620, in the assay with UO-31, with SF-295, in the assay with LOX IMVI and with SN12C was > 100 µM (inactive) each time. In addition, the GI50 was > 100 µM (inactive) in the assay on SNB-78; > 100 µM (inactive) with KM12; 88.3 µM (inactive) with K562; > 100 µM (inactive) in the assay on SF-539; > 100 µM (inactive) with COLO 205; > 100 µM (inactive) with A549.
In the case of `CN(C(=O)C12C3C4C1C1C2C3C41C(=O)C(C)(C)C)C(C)(C)C` (stereo unspecified), the GI50 is > 100 µM (inactive) in the assay on A498; 76 µM (inactive) in the assay with SNB-75; 63.5 µM (inactive) in the assay with HL-60; > 100 µM (inactive) in the assay with UACC-257; > 100 µM (inactive) in the assay with HOP-62; > 100 µM (inactive) in the assay with SK-MEL-5. Besides, the GI50 with U-251, with Malme-3M, with SW-620, in the assay with UO-31, in the assay with SF-295 and with LOX IMVI was > 100 µM (inactive) each time. Also, the GI50 with SN12C, with SNB-78, in the assay with KM12, with K562, with SF-539 and in the assay with COLO 205 was > 100 µM (inactive) throughout. Moreover, the GI50 in the assay on A549 is > 100 µM (inactive).
As for `O=c1[nH]cnc2sc(=S)c3c(c12)CCC3`, the GI50 in the assay with SNB-75 is > 100 µM (inactive); with HL-60, 22.2 µM (inactive); with UACC-257, 33.3 µM (inactive); in the assay on HOP-62, 52.2 µM (inactive); with SK-MEL-5, 17.8 µM (inactive); in the assay on U-251 it was > 100 µM (inactive). Further, the GI50 was 37.2 µM (inactive) in the assay on Malme-3M; 21.6 µM (inactive) in the assay on SW-620; 25.8 µM (inactive) in the assay with UO-31; > 100 µM (inactive) in the assay on SF-295; 24.7 µM (inactive) in the assay with LOX IMVI; 21.9 µM (inactive) in the assay on RXF 393. Also, the GI50 was > 100 µM (inactive) with SN12C; 51.5 µM (inactive) in the assay on KM12; 12.2 µM (inactive) with K562; > 100 µM (inactive) in the assay with SF-539; 14.4 µM (inactive) with COLO 205; 68.7 µM (inactive) with A549.
With `NC(CCOCCP(=O)(O)CCOCCC(N)C(=O)O)C(=O)O` (stereo unspecified), the GI50 in the assay with SNB-75, in the assay on HL-60, in the assay on UACC-257, in the assay with SK-MEL-5, in the assay on U-251 and in the assay on SW-620 was > 100 µM (inactive) in each case. Besides, the GI50 in the assay with UO-31, in the assay with SF-295, in the assay with RXF 393, in the assay on SN12C, with KM12 and in the assay with K562 was > 100 µM (inactive) throughout. For the same compound, the GI50 in the assay with SF-539, in the assay on COLO 205 and in the assay with A549 was > 100 µM (inactive) throughout.
